The values below come from ChEMBL document CHEMBL3352459, “Synthesis and evaluation of N-acyl-substituted 1,2-benzisothiazol-3-one derivatives as caspase-3 inhibitors” (Bioorg Med Chem, 2014).

The target of one assay is T1, Caspase-7 (Homo sapiens, UniProt P55210).
T1 sequence (P55210 whole entry): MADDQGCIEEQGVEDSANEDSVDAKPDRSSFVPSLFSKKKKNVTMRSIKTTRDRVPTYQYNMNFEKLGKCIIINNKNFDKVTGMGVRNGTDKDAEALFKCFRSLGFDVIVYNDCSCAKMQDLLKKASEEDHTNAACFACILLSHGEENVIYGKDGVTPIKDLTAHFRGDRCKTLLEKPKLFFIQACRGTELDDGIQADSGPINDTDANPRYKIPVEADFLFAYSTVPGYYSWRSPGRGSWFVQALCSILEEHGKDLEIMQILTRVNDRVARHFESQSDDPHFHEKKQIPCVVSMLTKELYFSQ
The experiment in a line: Inhibition of recombinant human caspase-7 activity using Ac-DEVD-AMC as substrate preincubated for 10 mins by fluorescence assay.

The target of the next assay is T2, Caspase-3 (Homo sapiens, UniProt P42574).
T2 sequence (P42574 whole entry): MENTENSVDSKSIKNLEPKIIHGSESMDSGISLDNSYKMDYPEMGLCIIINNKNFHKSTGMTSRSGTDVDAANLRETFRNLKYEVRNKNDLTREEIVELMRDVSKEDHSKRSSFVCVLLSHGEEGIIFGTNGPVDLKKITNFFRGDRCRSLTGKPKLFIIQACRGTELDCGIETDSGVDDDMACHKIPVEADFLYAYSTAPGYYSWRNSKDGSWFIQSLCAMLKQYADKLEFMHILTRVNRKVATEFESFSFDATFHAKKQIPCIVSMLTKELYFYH
As to the kind of experiment: Inhibition of recombinant human caspase-3 activity using Ac-DEVD-AMC as substrate preincubated for 10 mins by fluorescence assay.

Assay [1] relates to Jurkat. As to the kind of experiment: Antiapoptotic activity in camptothecin-induced human Jurkat cells assessed as apoptotic cells at 50 uM after 2 hrs using Annexin V-FITC and 7-AAD by flow cytometry relative to control. Format: functional. (In general: Flow cytometry measures light scatter and fluorescence of single cells or particles in a stream.)
Assay [2] deals with Jurkat. As to the kind of experiment: Antiapoptotic activity in camptothecin-induced human Jurkat cells assessed as apoptotic cells at 10 uM after 2 hrs using Annexin V-FITC and 7-AAD by flow cytometry relative to control. Format: functional.

Residues, ends and D or L forms follow the SMILES beside them. *: point of attachment. Cbz = O=C(OCc1ccccc1)*; CH2F = FC*

As for `O=C(Nc1ccc(N2CCOCC2)cc1)n1sc2ccccc2c1=O`, the IC50 (in general, the concentration that inhibits the measured activity by half) on Caspase-7 was 0.164 µM; at Caspase-3, 0.106 µM.

Consider `O=C(Cc1ccccc1)n1sc2ccccc2c1=O`, for which the IC50 on Caspase-7 came to 0.269 µM; on Caspase-3 it was 0.292 µM.

Take `Cc1ccccc1CC(=O)n1sc2ccccc2c1=O`: the IC50 at Caspase-7 is 0.37 µM; on Caspase-3, 0.2 µM.

As to `Cc1cccc(CC(=O)n2sc3ccccc3c2=O)c1`, the IC50 turned out to be 0.184 µM on Caspase-7 and 0.339 µM at Caspase-3.

Regarding `Cc1ccc(CC(=O)n2sc3ccccc3c2=O)cc1`, the IC50 is 0.182 µM at Caspase-7 and 0.214 µM on Caspase-3.

In the case of `COc1ccccc1CC(=O)n1sc2ccccc2c1=O`, the IC50 was 0.207 µM on Caspase-7 and 0.219 µM at Caspase-3.

Turning to `COc1cccc(CC(=O)n2sc3ccccc3c2=O)c1`, the IC50 came out at 0.211 µM at Caspase-7 and 0.548 µM at Caspase-3.

For the molecule `COc1ccc(CC(=O)n2sc3ccccc3c2=O)cc1`, the IC50 at Caspase-7 was determined as 0.213 µM; on Caspase-3, 1.34 µM.

Take `O=C(Cc1ccccc1F)n1sc2ccccc2c1=O`: the IC50 on Caspase-7 was 0.123 µM; at Caspase-3, 0.186 µM.

Regarding `O=C(Cc1cccc(F)c1)n1sc2ccccc2c1=O`, the IC50 on Caspase-7 came to 0.458 µM; on Caspase-3, 0.899 µM.

Turning to `O=C(Cc1ccc(F)cc1)n1sc2ccccc2c1=O`, the IC50 at Caspase-7 worked out at 0.608 µM; at Caspase-3, 1.2 µM.

Regarding `O=C(Cc1ccccc1Cl)n1sc2ccccc2c1=O`, the IC50 on Caspase-7 is 0.145 µM; on Caspase-3, 0.193 µM.

As to `O=C(Cc1cccc(Cl)c1)n1sc2ccccc2c1=O`, the IC50 at Caspase-7 is 0.607 µM; at Caspase-3, 0.272 µM.

Consider `O=C(Cc1ccc(Cl)cc1)n1sc2ccccc2c1=O`, for which the values for the IC50 at Caspase-7 and at Caspase-3 were 0.586 µM and 0.215 µM, respectively.

Regarding `O=C(Cc1ccc(O)cc1)n1sc2ccccc2c1=O`, the IC50 on Caspase-7 is 0.33 µM; on Caspase-3, 0.326 µM.

Consider `O=C(Cc1ccc(Cl)c(Cl)c1)n1sc2ccccc2c1=O`, for which the values for the IC50 on Caspase-7 and on Caspase-3 were 0.198 µM and 0.654 µM, respectively.

Take `O=C(CCc1ccccc1)n1sc2ccccc2c1=O`: the IC50 on Caspase-7 came to 0.112 µM; at Caspase-3, 0.108 µM.

Regarding `Cc1cccc(CCC(=O)n2sc3ccccc3c2=O)c1`, the results for the IC50 at Caspase-7 and on Caspase-3 were 0.109 µM and 0.095 µM, respectively.

For the molecule `Cc1ccc(CCC(=O)n2sc3ccccc3c2=O)cc1`, the IC50 on Caspase-7 turned out to be 0.0725 µM; at Caspase-3, 0.119 µM.

Take `COc1ccccc1CCC(=O)n1sc2ccccc2c1=O`: the IC50 on Caspase-7 was determined as 0.0637 µM; at Caspase-3, 0.137 µM.

For `COc1cccc(CCC(=O)n2sc3ccccc3c2=O)c1`, the IC50 on Caspase-7 was 0.054 µM; at Caspase-3, 0.0349 µM. In addition, the Activity with Jurkat [1] is 100%; in the assay on Jurkat [2] it was 36.6%.

In the case of `COc1ccc(CCC(=O)n2sc3ccccc3c2=O)cc1`, the IC50 turned out to be 0.0519 µM on Caspase-7 and 0.0497 µM on Caspase-3. The figures for the Activity in the assay with Jurkat [1] and in the assay with Jurkat [2] were 100% and 37.5%, respectively.

In the case of `O=C(CCc1ccccc1F)n1sc2ccccc2c1=O`, the IC50 on Caspase-7 amounted to 0.0869 µM; at Caspase-3, 0.13 µM.

For `O=C(CCc1cccc(F)c1)n1sc2ccccc2c1=O`, the half-maximal inhibitory concentration (IC50) worked out at 0.0784 µM on Caspase-7 and 0.0877 µM on Caspase-3.

With `O=C(CCc1ccc(F)cc1)n1sc2ccccc2c1=O`, the IC50 at Caspase-7 came to 0.0597 µM; at Caspase-3 it was 0.112 µM.

For `O=C(CCc1ccccc1Cl)n1sc2ccccc2c1=O`, the IC50 on Caspase-7 amounted to 0.158 µM; at Caspase-3, 0.0473 µM.

As to `O=C(CCc1ccc(Cl)cc1)n1sc2ccccc2c1=O`, the figures for the IC50 at Caspase-7 and at Caspase-3 were 0.0727 µM and 0.0569 µM, respectively.

Regarding `O=C(CCCc1ccccc1)n1sc2ccccc2c1=O`, the IC50 on Caspase-7 is 0.166 µM; at Caspase-3 it was 0.182 µM.

With `Cc1ccc(CCCC(=O)n2sc3ccccc3c2=O)cc1`, the IC50 on Caspase-7 came to 0.0979 µM; on Caspase-3, 0.266 µM.

For `COc1ccc(CCCC(=O)n2sc3ccccc3c2=O)cc1`, the IC50 on Caspase-7 is 0.0749 µM; on Caspase-3 it was 0.39 µM.

In the case of `O=C(CCCCc1ccccc1)n1sc2ccccc2c1=O`, the IC50 came to 0.101 µM on Caspase-7 and 0.306 µM on Caspase-3.

Regarding `O=C(Cc1cccs1)n1sc2ccccc2c1=O`, the IC50 on Caspase-7 worked out at 18.1 µM; on Caspase-3 it was 32.2 µM.

`O=C(CCC(=O)n1sc2ccccc2c1=O)c1cccs1`: the IC50 on Caspase-7 turned out to be 0.0567 µM; on Caspase-3, 0.235 µM.

Take `O=C(CCCc1cccs1)n1sc2ccccc2c1=O`: the values for the IC50 at Caspase-7 and at Caspase-3 were 0.115 µM and 0.127 µM, respectively.

On to `O=C(Cc1ccc(-c2ccccc2)cc1)n1sc2ccccc2c1=O`, for which the IC50 at Caspase-7 was 0.115 µM; on Caspase-3, 0.141 µM.

As to `O=C(Cc1ccc2ccccc2c1)n1sc2ccccc2c1=O`, the IC50 at Caspase-7 was 0.297 µM; at Caspase-3, 0.265 µM.

With `O=C(Cc1ccc2c(c1)CCO2)n1sc2ccccc2c1=O`, the IC50 on Caspase-7 stood at 0.185 µM; at Caspase-3, 0.222 µM.

In the case of `CC(=O)N[C@@H](CC(=O)O)C(=O)N[C@@H](CCC(=O)O)C(=O)N[C@H](C(=O)N[C@H](C=O)CC(=O)O)C(C)C`, on Caspase-7, the IC50 worked out at 0.155 µM.

Consider `COC(=O)C[C@H](NC(=O)[C@H](C)NC(=O)[C@@H](NC(=O)OCc1ccccc1)C(C)C)C(=O)CF` (Cbz-Val-Ala-Asp(OMe)-CH2F), for which the Activity in the assay on Jurkat [2] came out at 40.2%.
